“Also recorded” adds a separate entry of the source. Square brackets hold non-standard residues; d marks the D form. Peptide text beside a SMILES is read from it. * marks the point of attachment. ξ: configuration not given here. X1 = CCCCCCCCCCCCCCCCCCCCCCCCCC(=O)N[C@@H](CO[C@H]1OC(CNC(=O)OCOC(=O)CC/C(C)=N/OCC(=O)*)[C@H](O)[C@H](O)C1O)[C@H](O)[C@H](O)CCCCCCCCCCCCCC; ξF = NC(Cc1ccccc1)C(=O)O
Legend:
CD11c+ dendritic cells = assay: CD86 expression on splenic dendritic cells; assay type: in vivo, C57BL/6 mice; conditions: 0.571 nmol intravenously, spleens removed 20 h later, n=3, FIG. 3
Method: Groups of C57BL/6 mice (n=3) are injected intravenously with 0.571 nmol of the indicated compounds and then the spleens removed 20 h later for the analysis of CD86 expression on CD11c^+ dendritic cells by antibody labelling and flow cytometry. Mean fluorescence index (MFI)±SEM are presented. *P<0.05, *P<0.01, ***P<0.001
Antibody staining and flow cytometry is used to examine the expression of maturation markers on dendritic cells in the spleen following injection of compounds of the invention (0.23 nmol). Splenocyte preparations are prepared by gentle teasing of splenic tissue through gauze in Iscove's Modified Dulbecco's Medium with 2 mM glutamine, 1% penicillin-streptomycin, 5×10^-5 M 2-mercapto-ethanol and 5% fetal bovine serum (all Invitrogen, Auckland, New Zealand), followed by lysis of red blood cells with RBC lysis buffer (Puregene, Gentra Systems, Minneapolis, Minn., USA). Antibody staining is performed in PBS 2% fetal bovine serum and 0.01% sodium azide. The anti-FcgRII monoclonal antibody 2.4G2 is used at […] to inhibit non-specific staining. Monoclonal antibodies (all BD Biosciences Pharmingen, San Jose, Calif., USA) are used to examine expression of the maturation markers CD40, CD80 and CD86 on CD11c+ dendritic cells.

[1] = tested on: NKT cell activity (CD86 on B cells in the peripheral blood); assay: CD86 expression on peripheral blood B cells as readout of NKT cell activity; assay type: in vivo, C57BL/6 mice; conditions: 0.23 nmol intravenously, blood collected 20 h later, n=3, FIG. 1
Method: Groups of C57BL/6 mice (n=3) are injected intravenously with 0.23 nmol of the indicated glycolipid compounds and then the blood samples collected 20 h later for the analysis of CD86 expression on CD45 (B220)+B cells by antibody labelling and flow cytometry. Mean fluorescence index (MFI)±SEM are presented, *P<0.05, *P<0.01, ***P<0.001.
Each compound of the invention is supplied as formulated product (see example 3), and diluted in phosphate-buffered saline (PBS) for injection (0.23 nmol/mouse) by intravenous injection into the lateral tail vein. In humans the expected therapeutic dose lies in the 50-4800 (μg/m^2) range (Giaccone, Punt et al. 2002). Note, 0.23 nmol in a mouse is a human equivalent dose of 30 μg/m^2 for α-GalCer.
All antibody labelling is performed on ice in FACS buffer (PBS supplemented with 1% FCS, 0.05% sodium azide, and 2 mM EDTA). Non-specific FcR-mediated antibody staining is blocked by incubation for 10 min with anti-CD16/32 Ab (24G2, prepared in-house from hybridoma supernatant). Flow cytometry is performed on a BD Biosciences FACSCalibur or BD LSRII SORP flow cytometer with data analysis using FlowJo software (Tree Star, Inc., OR, USA).
Antibody staining and flow cytometry are used to examine the expression of the maturation markers CD86 on peripheral blood B cells following injection of compounds of the invention. […]

[2] = tested on: SIINFEKL-specific T cells; assay: Peptide-specific T cell proliferation in vivo (OT-1 transfer); parameters: species or system C57BL/6 mice; conditions: intravenous vaccination one day after transfer of 10,000 OT-1 cells, equivalent molar dose of SIINFEKL, blood after seven days, FIG. 2
Method: The compounds are injected to give the equivalent molar dose of SIINFEKL (SEQ ID NO: 262) peptide in each case. To increase sensitivity of the assay, all mice are initially donated a cohort of 10,000 SIINFEKL-specific T cells from a transgenic mouse encoding a T cell receptor for this antigen (OT-1 mice) by intravenous injection of the cells one day before the vaccines are administered. […] It is therefore possible to enumerate SIINFEKL-specific T cells in blood by flow cytometry using antibodies for CD45.1 together with antibodies for the transgenic T cell receptor (Vα2). Control animals (naïve) are injected with the diluent phosphate-buffered saline (PBS). […] Each dot represents a different animal; mean per treatment group±SEM are presented. *P<0.05, *P<0.01, ***P<0.001
Pooled lymph node cell suspensions are prepared from animals of a cross between OT-1 mice, which express a transgenic T cell receptor (TCR) specific for the ovalbumin epitope SIINFEKL (SEQ ID NO: 262)-in the context of H-2K^b molecules, and B6.SJL-Ptprc^a Pepc^b/BoyJ mice, which are congenic with C57BL/6 mice for the CD45.1^+ marker. The samples are enriched for CD8^+ cells using antibody coated magnetic beads (Miltenyi), and then transferred into C57BL/6 mice (1×10^4 per mouse). Groups of recipient animals (n=5) are immunized with compounds of the invention one day later. […]

human NKT cells = conditions: Kawano, Cui et al. 1997; cited from earlier work
mouse NKT cells = conditions: Kawano, Cui et al. 1997; cited from earlier work
[3] = Ebensen, Link et al. 2007; cited from earlier work
B16.OVA melanoma cells = assay: Anti-tumour activity against subcutaneous B16.OVA tumours; assay type: in vivo, C57BL/6 mice; conditions: 0.571 nmol intravenously five days after tumour challenge, n=5, FIG. 5
Method: Progression of subcutaneous B16.OVA tumours is monitored in animals treated five days after tumour challenge with intravenous CI-017 or CN159 peptide and α-GalCer or with PBS. The mean tumour sizes per group (n=5)±SEM are shown.
Groups of C57BL/6 mice (n=5) receive a subcutaneous injection into the flank of 1×10^5 B16.OVA melanoma cells, which express a cDNA encoding the chicken ovalbumin (OVA) sequence. The different groups are treated five days later by intravenous injection of one of the following; CI-017 (0.571 nmol), peptide CN159 (0.571 nmol) mixed with α-GalCer (0.571 nmol), or PBS. Mice are monitored for tumour growth every 3-4 days, and tumour size for each group calculated as the mean of the products of bisecting diameters (±SEM). Measurements are terminated for each group when the first animal develops a tumour exceeding 200 mm^2.

[4] = tested on: syngeneic splenocytes loaded ex vivo with SIINFEKL; assay: Peptide-specific T cell-mediated cytotoxicity in vivo (VITAL assay); parameters: species or system mice; conditions: 0.571 nmol intravenously, targets injected 7 days after vaccination, 5 animals per group, FIG. 4
Method: The compounds are injected to give the equivalent molar dose of SIINFEKL (SEQ ID NO: 262) peptide, in each case of 0.571 nmol. Flow cytometry is used to assess the killing of target cells comprised of syngeneic splenocytes loaded ex vivo with 5 μM SIINFEKL (SEQ ID NO: 262) injected intravenously 7 days after vaccination. To discriminate the targets from host tissue, the injected cells are labelled with the fluorescent dye carboxyfluorescein succinimidyl ester (CFSE). A cohort syngeneic splenocytes (without peptide) labelled with the fluorescent dye cell tracker orange are also injected to serve as controls. Killing is defined as the percentage of peptide-loaded targets killed relative to control cells. Each treatment group contained 5 animals. Control animals are injected with the diluent phosphate-buffered saline (PBS). […] Mean percentage of killing per group±SEM are shown. ***p<0.001
The cytotoxic capacity of induced CD8^+ T cell responses is measured by VITAL assay (Hermans, Silk et al. 2004). […] Specific lysis of the peptide-loaded targets is monitored by flow cytometry of blood or spleen samples 24 h later. Mean percent survival of peptide-pulsed (CFSE+) targets is calculated relative to that of the control population (CTO+), and cytotoxic activity is expressed as percent specific lysis (100−mean percent survival of peptide-pulsed targets).

## CCCCCCCCCCCCCCCCCCCCCCCCCC(=O)N[C@@H](CO[C@H]1OC(CN)[C@H](O)C(O)C1O)[C@H](O)[C@H](O)CCCCCCCCCCCCCC (some centres unmarked) [CN168]
CD11c+ dendritic cells
  CD86 expression on CD11c+ dendritic cells in spleen (mean fluorescence index): potently activated dendritic cells

## CCCCCCCCCCCCCCCCCCCCCCCCCC(=O)N[C@@H](CO[C@H]1OC(CNC(=O)OCOC(=O)CC/C(C)=N/OCC(=O)N[C@@H](Cc2ccccc2)C(=O)NC(Cc2ccccc2)C(=O)N[C@@H](CCCNC(=N)N)C(=O)N[C@@H](CCCCN)C(=O)N[C@@H](CO)C(=O)N[C@H](C(=O)N[C@H](C(=O)N[C@@H](CC(N)=O)C(=O)N[C@@H](Cc2ccccc2)C(=O)N[C@@H](CCC(=O)O)C(=O)N[C@@H](CCCCN)C(=O)N[C@@H](CC(C)C)C(=O)O)[C@@H](C)CC)[C@@H](C)CC)[C@H](O)[C@H](O)C1O)[C@H](O)[C@H](O)CCCCCCCCCCCCCC (stereo partly drawn) [CN169, (2S,3S,4R)-1-(6-Deoxy-6-(4-((2-(FFRKSIINFEKL)-2-(oxo)ethoxyimino)pentanoyloxy)methoxycarbonylamino)-α-D-galactopyranosyloxy)-2-hexacosanoylamino-3,4-octadecandiol] (X1-F[ξF]RKSIINFEKL-OH)
[1]
  CD86 expression on CD45 (B220)+ B cells in peripheral blood (mean fluorescence index): potently activate B cells
[2]
  SIINFEKL-specific T cells (Vα2+ CD45.1+) in blood: increased antigen-specific T cell response; also recorded: larger population of peptide-specific T cells; also recorded: larger population of SIINFEKL-specific T cells

## CCCCCCCCCCCCCCCCCCCCCCCCCC(=O)N[C@@H](CO[C@H]1O[C@H](CO)[C@H](O)[C@H](O)[C@H]1O)[C@H](O)[C@H](O)CCCCCCCCCCCCCC [α-GalCer, α-Galactosylceramide]
Human NKT cells
  Activation of human NKT cells: potently activates
Mouse NKT cells
  Activation of mouse NKT cells: potently activates
[3]
  Solubility: poor solubility

## (2S,3S,4R)-1-(6-Deoxy-6-(4-β-(FFRKSIINFEKL)-3-oxopropyl)-1H-1,2,3-triazol-1-yl)hexanoyl)-(N-Val-Cit-4-aminobenzyloxycarbonylamino)-1-(α-D-galactopyranosyloxy))-2-hexacosanoylamino-3,4-octadecandiol [CI-017]
B16.OVA melanoma cells
  Anti-tumour activity (mean tumour size): superior anti-tumour activity
[4]
  SIINFEKL-specific cytotoxicity (percentage of peptide-loaded targets killed relative to control cells): greater SIINFEKL (SEQ ID NO: 262)-specific cytotoxicity
